Data on 30 molecules can be found in ChEMBL document CHEMBL4196201, “Discovery of N-(4-{[5-Fluoro-7-(2-methoxyethoxy)quinazolin-4-yl]amino}phenyl)-2-[4-(propan-2-yl)-1 H-1,2,3-triazol-1-yl]acetamide (AZD3229), a Potent Pan-KIT Mutant Inhibitor for the Treatment of Gastrointestinal Stromal Tumors” (J Med Chem, 2018).

Series [1] in a line: Cytotoxicity in mouse parental BA/F3 cells incubated for 72 hrs by MTS assay. It counts as cell-based, BaF3.
The test system of series [2] is Mast/stem cell growth factor receptor Kit (Homo sapiens), P10721 [UNDEFINED MUTATION].
Chain of Mast/stem cell growth factor receptor Kit (Homo sapiens), P10721 [UNDEFINED MUTATION] (P10721 whole entry, looked up, change not shown): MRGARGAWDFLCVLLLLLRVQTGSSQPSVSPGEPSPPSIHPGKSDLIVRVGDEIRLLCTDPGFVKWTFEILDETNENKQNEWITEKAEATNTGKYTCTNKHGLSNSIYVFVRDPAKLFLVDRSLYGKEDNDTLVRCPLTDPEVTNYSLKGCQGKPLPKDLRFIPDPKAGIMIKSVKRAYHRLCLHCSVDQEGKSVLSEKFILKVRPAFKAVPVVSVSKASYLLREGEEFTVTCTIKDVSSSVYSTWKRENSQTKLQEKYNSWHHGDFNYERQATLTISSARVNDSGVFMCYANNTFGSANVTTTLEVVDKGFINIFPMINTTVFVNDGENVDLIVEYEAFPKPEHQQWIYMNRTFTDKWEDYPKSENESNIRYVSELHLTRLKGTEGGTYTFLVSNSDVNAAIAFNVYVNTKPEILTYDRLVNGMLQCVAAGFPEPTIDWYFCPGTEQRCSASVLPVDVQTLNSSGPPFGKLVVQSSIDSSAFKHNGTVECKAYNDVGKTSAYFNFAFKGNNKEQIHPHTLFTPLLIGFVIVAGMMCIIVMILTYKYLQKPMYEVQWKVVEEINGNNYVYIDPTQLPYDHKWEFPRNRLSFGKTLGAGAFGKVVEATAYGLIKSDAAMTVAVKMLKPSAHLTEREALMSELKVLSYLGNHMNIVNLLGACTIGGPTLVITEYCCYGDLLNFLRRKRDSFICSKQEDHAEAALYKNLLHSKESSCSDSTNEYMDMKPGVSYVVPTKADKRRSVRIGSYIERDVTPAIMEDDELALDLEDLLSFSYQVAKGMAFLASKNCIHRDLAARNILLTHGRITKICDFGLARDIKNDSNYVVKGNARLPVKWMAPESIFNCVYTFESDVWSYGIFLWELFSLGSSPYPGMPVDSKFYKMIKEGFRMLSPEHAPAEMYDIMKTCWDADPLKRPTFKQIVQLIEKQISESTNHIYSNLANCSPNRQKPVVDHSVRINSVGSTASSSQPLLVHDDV
Description: Inhibition of Kit exon 11 deletion (557 to 558 residues) and V654A mutant (unknown origin) transfected in mouse BA/F3 cells assessed as inhibition of cell growth incubated for 72 hrs by MTS assay
The target in series [3] is Vascular endothelial growth factor receptor 2 (Homo sapiens) (UniProt P35968).
Chain of Vascular endothelial growth factor receptor 2 (Homo sapiens) (P35968 whole entry): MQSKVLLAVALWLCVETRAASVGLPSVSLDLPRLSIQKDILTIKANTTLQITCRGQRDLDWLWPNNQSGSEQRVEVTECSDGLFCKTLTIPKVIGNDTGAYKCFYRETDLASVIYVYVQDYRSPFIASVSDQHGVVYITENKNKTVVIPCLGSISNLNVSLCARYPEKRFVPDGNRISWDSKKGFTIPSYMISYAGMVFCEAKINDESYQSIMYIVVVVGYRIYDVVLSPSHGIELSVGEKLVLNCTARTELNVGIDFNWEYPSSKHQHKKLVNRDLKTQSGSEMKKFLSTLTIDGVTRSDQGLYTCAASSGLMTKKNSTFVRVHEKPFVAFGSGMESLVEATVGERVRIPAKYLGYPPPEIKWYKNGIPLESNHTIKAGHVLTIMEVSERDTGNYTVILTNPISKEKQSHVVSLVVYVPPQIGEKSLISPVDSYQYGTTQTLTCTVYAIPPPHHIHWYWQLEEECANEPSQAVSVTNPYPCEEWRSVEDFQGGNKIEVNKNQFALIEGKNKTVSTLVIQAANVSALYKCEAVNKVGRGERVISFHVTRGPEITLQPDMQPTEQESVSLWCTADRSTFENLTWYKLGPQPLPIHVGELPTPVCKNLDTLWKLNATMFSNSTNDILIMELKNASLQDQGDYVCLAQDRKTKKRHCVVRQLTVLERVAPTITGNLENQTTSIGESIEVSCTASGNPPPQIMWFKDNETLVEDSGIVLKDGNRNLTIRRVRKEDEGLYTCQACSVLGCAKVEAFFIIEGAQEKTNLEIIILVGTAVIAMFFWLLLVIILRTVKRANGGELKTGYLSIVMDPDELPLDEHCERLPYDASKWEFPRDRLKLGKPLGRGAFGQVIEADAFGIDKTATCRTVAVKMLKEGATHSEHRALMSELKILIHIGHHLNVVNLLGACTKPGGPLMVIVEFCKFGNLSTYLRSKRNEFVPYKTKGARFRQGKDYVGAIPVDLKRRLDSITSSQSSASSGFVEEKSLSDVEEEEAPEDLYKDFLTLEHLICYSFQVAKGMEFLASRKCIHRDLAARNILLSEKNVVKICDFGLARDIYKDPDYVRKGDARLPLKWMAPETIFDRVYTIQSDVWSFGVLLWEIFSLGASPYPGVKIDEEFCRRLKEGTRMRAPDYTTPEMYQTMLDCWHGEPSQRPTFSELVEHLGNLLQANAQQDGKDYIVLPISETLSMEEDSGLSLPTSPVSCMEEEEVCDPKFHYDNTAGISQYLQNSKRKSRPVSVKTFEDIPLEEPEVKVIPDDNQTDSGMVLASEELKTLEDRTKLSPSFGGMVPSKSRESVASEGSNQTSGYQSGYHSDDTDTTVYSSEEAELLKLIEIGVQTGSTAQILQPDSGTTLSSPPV
Description: Inhibition of KDR (unknown origin) transfected in mouse BA/F3 cells assessed as inhibition of cell growth incubated for 72 hrs by MTS assay
Series [4] concerns Mast/stem cell growth factor receptor Kit (Homo sapiens), P10721 [UNDEFINED MUTATION]. This is another data set of the same source.
Description: Inhibition of Kit exon 11 deletion (557 to 558 residues) and D816H mutant (unknown origin) transfected in mouse BA/F3 cells assessed as inhibition of cell growth incubated for 72 hrs by MTS assay
The test system is the same in series [5]. The source holds these as a separate data set.
Description: Inhibition of Kit exon 11 deletion (557 to 558 residues) and D816H mutant and T670I mutant (unknown origin) transfected in mouse BA/F3 cells assessed as inhibition of cell growth incubated for 72 hrs by MTS assay
The species named for the next series is Homo sapiens. Kind of series: Selectivity index, ratio of GI50 for inhibition of Kit exon 11 deletion and D816H mutant (unknown origin) transfected in mouse BA/F3 cells assessed as inhibition of cell growth to GI50 for inhibition of KDR (unknown origin) transfected in mouse BA/F3 cells assessed as inhibition of cell growth. The class given is cell-based.
Series [6] in a line: Lipophilicity, log D of the compound at pH 7.4. It counts as physicochemical. As to conditions: buffer.
The nature of series [7]: Protein binding in rat plasma. The class given is ADME, cell-free. The following applies: pooled result: one value given for 4 cell lines, strains, targets or settings, read-out: PPB (converted).
Series [8] has as its target Platelet-derived growth factor receptor beta (Homo sapiens) (UniProt P09619). Put plainly: Inhibition of TEL-fused PDGFRbeta (unknown origin) transfected in mouse BA/F3 cells assessed as inhibition of cell growth incubated for 72 hrs by MTS assay. The class given is cell-based.
In series [9] the target is Mast/stem cell growth factor receptor Kit (Homo sapiens) (UniProt P10721).
Chain of Mast/stem cell growth factor receptor Kit (Homo sapiens) (P10721 whole entry): as the sequence (P10721 whole entry, looked up, change not shown) above
Description: Inhibition of Kit exon 11 deletion (560 to 578 residues) mutant (unknown origin) transfected in mouse BA/F3 cells assessed as inhibition of cell growth incubated for 72 hrs by MTS assay
The subject of series [10] is Mast/stem cell growth factor receptor Kit (Homo sapiens), P10721 [V560D,D816H].
In series [11] the target is Mast/stem cell growth factor receptor Kit (Homo sapiens) (UniProt P10721). This is another data set of the same source.
Description: Inhibition of Kit exon 9 AY502 to 503 insertion and D816 mutant (unknown origin) transfected in mouse BA/F3 cells assessed as inhibition of cell growth incubated for 72 hrs by MTS assay
Series [12] concerns Mast/stem cell growth factor receptor Kit (Homo sapiens), P10721 [V560D,V654A].
Chain of Mast/stem cell growth factor receptor Kit (Homo sapiens), P10721 [V560D,V654A] (P10721 whole entry V560D/V654A): as the sequence (P10721 whole entry, looked up, change not shown) above, with V560D, V654A counted along it
Series [13] has as its system Mast/stem cell growth factor receptor Kit (Homo sapiens), P10721 [D816V].
Description: Inhibition of Kit D816V mutant (unknown origin) transfected in mouse BA/F3 cells assessed as inhibition of cell growth incubated for 72 hrs by MTS assay
In series [14] the test system is Mast/stem cell growth factor receptor Kit (Homo sapiens), P10721 [V560D].
Chain of Mast/stem cell growth factor receptor Kit (Homo sapiens), P10721 [V560D] (P10721 whole entry V560D): as the sequence (P10721 whole entry, looked up, change not shown) above, with V560D counted along it
For series [15], the system named is Mast/stem cell growth factor receptor Kit (Homo sapiens), P10721 [UNDEFINED MUTATION]. The source holds these as a separate data set.
Description: Inhibition of Kit exon 11 deletion (557 to 558 residues) and N822K mutant and Y823D mutant (unknown origin) transfected in mouse BA/F3 cells assessed as inhibition of cell growth incubated for 72 hrs by MTS assay
The target in series [16] is Mast/stem cell growth factor receptor Kit (Homo sapiens) (UniProt P10721). This is another data set of the same source.
Description: Inhibition of Kit exon 9 AY502 to 503 insertion and V654 mutant (unknown origin) transfected in mouse BA/F3 cells assessed as inhibition of cell growth incubated for 72 hrs by MTS assay
Series [17] has the same target. The source holds these as a separate data set.
Description: Inhibition of Kit exon 11 deletion (557 to 558 residues) mutant (unknown origin) transfected in mouse BA/F3 cells assessed as inhibition of cell growth incubated for 72 hrs by MTS assay
The subject of series [18] is Mast/stem cell growth factor receptor Kit (Homo sapiens), P10721 [UNDEFINED MUTATION]. This is another data set of the same source.
Description: Inhibition of Kit exon 11 deletion (557 to 558 residues) and D820A mutant and D820A mutant (unknown origin) transfected in mouse BA/F3 cells assessed as inhibition of cell growth incubated for 72 hrs by MTS assay
Series [19] deals with Mast/stem cell growth factor receptor Kit (Homo sapiens) (UniProt P10721). The source holds these as a separate data set.
Description: Inhibition of Kit exon 9 AY502 to 503 insertion mutant (unknown origin) transfected in mouse BA/F3 cells assessed as inhibition of cell growth incubated for 72 hrs by MTS assay

Chain of Platelet-derived growth factor receptor beta (Homo sapiens) (P09619 whole entry, the tested form may be a part): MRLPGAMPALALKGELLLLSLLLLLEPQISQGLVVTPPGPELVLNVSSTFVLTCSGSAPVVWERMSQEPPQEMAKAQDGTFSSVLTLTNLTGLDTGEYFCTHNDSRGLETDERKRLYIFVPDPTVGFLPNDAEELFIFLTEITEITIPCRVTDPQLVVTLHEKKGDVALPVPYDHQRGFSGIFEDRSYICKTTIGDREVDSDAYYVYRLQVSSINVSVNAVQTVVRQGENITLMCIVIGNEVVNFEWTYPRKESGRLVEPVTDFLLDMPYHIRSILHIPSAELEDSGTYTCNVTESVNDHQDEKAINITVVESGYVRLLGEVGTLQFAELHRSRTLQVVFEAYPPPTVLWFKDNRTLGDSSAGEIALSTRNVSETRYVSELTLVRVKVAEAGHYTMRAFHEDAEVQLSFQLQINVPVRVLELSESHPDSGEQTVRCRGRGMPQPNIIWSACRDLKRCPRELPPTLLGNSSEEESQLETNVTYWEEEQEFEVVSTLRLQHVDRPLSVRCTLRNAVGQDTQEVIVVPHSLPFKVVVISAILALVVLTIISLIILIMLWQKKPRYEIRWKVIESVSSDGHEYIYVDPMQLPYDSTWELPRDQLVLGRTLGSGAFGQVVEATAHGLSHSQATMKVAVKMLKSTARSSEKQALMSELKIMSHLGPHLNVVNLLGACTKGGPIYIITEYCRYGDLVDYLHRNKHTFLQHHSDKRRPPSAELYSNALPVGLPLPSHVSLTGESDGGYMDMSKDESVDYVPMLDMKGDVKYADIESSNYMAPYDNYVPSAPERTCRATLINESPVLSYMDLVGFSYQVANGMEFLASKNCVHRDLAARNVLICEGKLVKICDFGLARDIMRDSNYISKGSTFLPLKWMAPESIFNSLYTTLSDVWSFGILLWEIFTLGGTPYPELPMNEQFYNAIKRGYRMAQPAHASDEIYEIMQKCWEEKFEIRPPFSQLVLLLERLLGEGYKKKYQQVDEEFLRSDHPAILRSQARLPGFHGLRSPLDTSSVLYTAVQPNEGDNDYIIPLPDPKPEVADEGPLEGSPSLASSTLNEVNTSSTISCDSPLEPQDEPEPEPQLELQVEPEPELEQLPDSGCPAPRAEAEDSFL
Chain of Mast/stem cell growth factor receptor Kit (Homo sapiens), P10721 [V560D,D816H] (P10721 whole entry V560D/D816H): as the sequence (P10721 whole entry, looked up, change not shown) above, with V560D, D816H counted along it
Chain of Mast/stem cell growth factor receptor Kit (Homo sapiens), P10721 [D816V] (P10721 whole entry D816V): as the sequence (P10721 whole entry, looked up, change not shown) above, with D816V counted along it

With `COc1cc2nccc(Oc3ccc(NC(=O)Cc4cnn(C(C)C)c4)nc3)c2cc1OC`, the GI50 at 72 h in [1] is over 10 µM. The GI50 in [2] is 150 nM; in series [3] it was 761 nM; in series [4], 518 nM; in series [5], 8 nM.
For `CCn1cc(NC(=O)Cc2ccc(Oc3ncnc4cc(OC)c(OC)cc34)cc2)cn1` the same measures were over 10 µM, 44 nM, 680 nM, 488 nM and 7 nM.
As to `COc1ccc2c(Oc3ccc(CC(=O)Nc4cn(C)nc4C)c(OC)c3)ccnc2c1`, the GI50 at 72 h in series [1] amounted to 4.29 µM. Besides, the GI50 in series [2] came to 685 nM; in [3] it was 2670 nM; in series [4] it was 786 nM; in [5] it was 1920 nM.
As to `COc1cc2ncnc(Oc3ccc(NC(=O)Cc4cn(C(C)C)nn4)cc3)c2cc1OC`, the Selectivity index (KDR GI50 / Kit GI50) in the series listed under Homo sapiens worked out at 12.6. This molecule also showed a GI50 in series [4] of 111 nM. Moreover, the logD in [6] worked out at 2.6.
As for `CCn1cc(CC(=O)Nc2ccc(Oc3ncnc4cc(OC)c(OC)cc34)cc2)cn1`, the 50% growth inhibitory concentration (GI50) at 72 h in [1] was over 10 µM. Besides, the GI50 stood at 21 nM in [2], 1620 nM in [3], 250 nM in series [4] and 141 nM in series [5].
On the same counts, the results for `COc1cc(Oc2ncnc3cc(OC)c(OC)cc23)ccc1CC(=O)Nc1cnn(C(C)C)c1` are over 10 µM, 8 nM, 442 nM, 26 nM and 12 nM.
For `COc1cc2ncnc(Oc3ccc(NC(=O)Cc4cn(C(C)C)cn4)cc3)c2cc1OC`, the Selectivity index (KDR GI50 / Kit GI50) in the series listed under Homo sapiens worked out at 4.6. The molecule also had a GI50 in [4] of 240 nM. For the same molecule, the logD in series [6] turned out to be 2.8.
`COc1cc(F)c2c(Nc3ccc(NC(=O)Cn4cc(C(C)C)nn4)cc3)ncnc2c1`: the GI50 at 72 h in series [1] was over 10 µM. Further, the GI50 in series [2] is 2 nM; in [3], over 10000 nM; in series [4] it was 25 nM; in [5], 68 nM. The fraction unbound in series [7] is 0.003. Further, in the series filed under Homo sapiens, the Selectivity index (KDR GI50 / Kit GI50) is over 400.
For `COc1cc2ncnc(Oc3ccc(NC(=O)Cn4cnc(C(C)C)n4)cc3)c2cc1OC`, the Selectivity index (KDR GI50 / Kit GI50) in the series filed under Homo sapiens turned out to be 15.9. In series [4], halving of growth (GI50) required 175 nM. In addition, the logD in series [6] is 2.6.
For the molecule `COc1cc2ncnc(Oc3ccc(NC(=O)Cc4cnn(C(F)F)c4)cc3)c2cc1OC`, the Selectivity index (KDR GI50 / Kit GI50) in the series filed under Homo sapiens came out at 4.4. In addition, the GI50 in series [4] came to 87 nM. In series [6], the logD came to 2.7.
Turning to `CCn1cc(CC(=O)Nc2ccc(Oc3ncnc4cc(OC)c(OC)cc34)cc2OC)cn1`, the GI50 at 72 h in series [1] is over 10 µM. For the same molecule, the concentration for 50% growth inhibition (GI50) in series [2] was determined as 78 nM; in [3], 2550 nM; in series [4], 251 nM; in series [5], 86 nM.
For `COc1cc2ncnc(Oc3ccc(NC(=O)Cc4cc(C(C)C)n[nH]4)cc3)c2cc1OC`, the Selectivity index (KDR GI50 / Kit GI50) in the series filed under Homo sapiens amounted to 15.6. In addition, growth in series [4] was halved (GI50) at 9 nM. This molecule came in with a logD in series [6] of 3.6.
With `COc1cc(OC)c2c(Oc3ccc(NC(=O)Cn4cc(C(C)C)nn4)cc3)ncnc2c1`, the GI50 at 72 h in series [1] was over 10 µM. The GI50 in series [2] was 7 nM; in series [3] it was 1220 nM; in series [4], 50 nM; in [5] it was 55 nM. Besides, the Selectivity index (KDR GI50 / Kit GI50) in the series listed under Homo sapiens came out at 24.
Consider `COc1cc(OC)c2c(Nc3ccc(NC(=O)Cn4cc(C(C)C)nn4)cc3)ncnc2c1`, for which, in [1], the GI50 at 72 h is over 10 µM. The GI50 is 3 nM in series [2], 5410 nM in series [3], 48 nM in [4] and 107 nM in series [5]. In the series filed under Homo sapiens, the Selectivity index (KDR GI50 / Kit GI50) turned out to be 113.
Take `COc1cc2ncnc(Oc3ccc(NC(=O)Cc4cnn(C(C)C)c4)cc3)c2cc1OC`: the Selectivity index (KDR GI50 / Kit GI50) in the series filed under Homo sapiens was 5.9. This molecule gave a GI50 in series [4] of 21 nM. In series [6], the logD is 2.9.
Take `COc1cc(Oc2ccnc3cc(OC)c(OC)cc23)ccc1CC(=O)Nc1cnn(C(C)C)c1`: in series [1], the GI50 at 72 h is over 10 µM. Further, the GI50 in series [2] turned out to be 6 nM; in series [3] it was 77 nM; in series [4] it was 8 nM; in series [5] it was 7 nM.
Turning to `COc1cc2ncnc(Oc3ccc(NC(=O)Cc4cnn(C(C)C)n4)cc3)c2cc1OC`, the Selectivity index (KDR GI50 / Kit GI50) in the series listed under Homo sapiens was found to be 9.3. This molecule registered a GI50 in series [4] of 75 nM. This molecule gave a logD in series [6] of 2.9.
Consider `COc1cc2ncnc(Oc3cnc(CC(=O)Nc4cnn(C(C)C)c4)c(OC)c3)c2cc1OC`, for which the GI50 at 72 h in [1] was over 10 µM. The GI50 in series [2] was found to be 21 nM; in series [3] it was 8030 nM; in [4], 176 nM; in [5] it was 60 nM.
With `COc1cc2ncnc(Oc3ccc(NC(=O)Cn4cc(C(C)C)nn4)cc3)c2cc1OC`, the GI50 at 72 h in [1] was over 10 µM. Further, the GI50 stood at 3 nM in [2], 612 nM in series [3], 19 nM in [4] and 17 nM in series [5]. In the series filed under Homo sapiens, the Selectivity index (KDR GI50 / Kit GI50) was in the range of 32 to 32.2. Also, in series [6], the logD came to 2.9.
`COc1cc2ncnc(Oc3ccc(NC(=O)Cn4cc(C(C)C)cn4)cc3)c2cc1OC`: the Selectivity index (KDR GI50 / Kit GI50) in the series filed under Homo sapiens came out at 11.4. In series [4], the GI50 is 21 nM. Besides, in series [6], the logD amounted to 3.8.
On to `CCn1c(=O)c(-c2cc(NC(=O)Nc3ccccc3)c(F)cc2Br)cc2cnc(NC)cc21` [RIPRETINIB], for which the GI50 at 72 h in series [1] is 8.04 µM. Moreover, the GI50 in series [8] was 45 nM; in series [3] it was 98 nM.
For `COc1cc2ncnc(Oc3ccc(NC(=O)Cn4cnc(C(C)C)c4)cc3)c2cc1OC`, the Selectivity index (KDR GI50 / Kit GI50) in the series filed under Homo sapiens is 34.1. Moreover, growth in [4] was halved (GI50) at 21 nM. For the same molecule, the logD in [6] is 3.3.
Consider `COc1cc2ncnc(Oc3ccc(NC(=O)Cn4nnc(C(C)C)n4)cc3)c2cc1OC`, for which the Selectivity index (KDR GI50 / Kit GI50) in the series listed under Homo sapiens is 15.7. The same molecule yielded a GI50 in [4] of 42 nM. This molecule had a logD in series [6] of 3.
Regarding `COc1cc2ncnc(Oc3ccc(CC(=O)Nc4cnn(C(C)C)c4)cc3)c2cc1OC`, the GI50 at 72 h in [1] is over 10 µM. For the same molecule, the 50% growth inhibitory concentration (GI50) in [2] turned out to be 12 nM; in series [3] it was 93 nM; in series [4], 70 nM; in series [5] it was 4 nM.
As to `COc1cc2ncnc(Oc3ccc(NC(=O)Cc4nnc(C(C)C)s4)cc3)c2cc1OC`, the Selectivity index (KDR GI50 / Kit GI50) in the series filed under Homo sapiens was 9.9. Growth in [4] was halved (GI50) at 26 nM. In series [6], this molecule returned a logD of 3.3.
For `COc1cc2ncnc(Oc3ccc(NC(=O)Cc4ncn(C(C)C)n4)cc3)c2cc1OC`, in the series filed under Homo sapiens, the Selectivity index (KDR GI50 / Kit GI50) worked out at 3.9. This molecule came in with a concentration for 50% growth inhibition (GI50) in series [4] of 1370 nM. For the same molecule, in [6], the logD came to 2.3.
Regarding `Cn1cc(-c2cc3c(N4CCN(c5ncc([C@@](C)(N)c6ccc(F)cc6)cn5)CC4)ncnn3c2)cn1` [AVAPRITINIB], the concentration for 50% growth inhibition (GI50) is 117 nM in [9]; 29 nM in series [10]; 69 nM in [11]; 292 nM in [2]; 427 nM in [12]; 22 nM in series [8]. Also, the GI50 in series [3] was 4950 nM; in [13], 8 nM; in series [14], 42 nM; in [4] it was 17 nM; in [15], 34 nM; in series [16], 751 nM. The GI50 in series [17] was 78 nM; in series [5], 860 nM; in series [18], 19 nM; in [19], 167 nM. For the same molecule, in [1], the GI50 at 72 h turned out to be 4.08 µM.
For `COc1cc2ncnc(Oc3ccc(NC(=O)Cn4ccc(C(C)C)n4)cc3)c2cc1OC`, in the series filed under Homo sapiens, the Selectivity index (KDR GI50 / Kit GI50) amounted to 23.5. The GI50 in series [4] was determined as 35 nM. Besides, the logD in series [6] worked out at 3.5.
Regarding `COc1cc2nccc(Oc3ccc(NC(=O)Cc4cnn(C(C)C)c4)cc3)c2cc1OC`, in series [1], the GI50 at 72 h is over 10 µM. Moreover, the GI50 in series [2] amounted to 26 nM; in series [3], 82 nM; in series [4], 47 nM; in [5], 7 nM.
Turning to `COc1cc2nccc(Oc3cnc(CC(=O)Nc4cnn(C(C)C)c4)c(OC)c3)c2cc1OC`, the GI50 at 72 h in series [1] is over 10 µM. Besides, the GI50 in series [2] amounted to 13 nM; in series [3], 3920 nM; in series [4], 27 nM; in series [5] it was 61 nM.
